Values quoted from earlier work, collected in patent EP2136625B1, “USE OF A MEANS FOR THE SI[…] WEEDS, ALGAE, PHYTOPATHOGENIC BACTERIA, FUNGI, VIRUSES AND VIROIDS” (priority 2007, dated 2008).

Settings: Methode EPA-FIFRA, Sonnenbarsch, 46 d

In the case of `CCCCCCCCCC[N+](C)(C)CCCCCCCCCC.[Cl-]` [DDAC, Didecyldimethylammoniumchlorid], the BCF is given as 81.
